Here are results for 1 molecule from patent US9199959B2, “HIV replication inhibitor” (Shionogi & Co., Ltd., priority 2011, dated 2015).

Series [1] deals with Salmonella typhimurium TA98 strain, TA100 strain. The class given is cell-based. The following applies: Salmonella typhimurium TA98, TA100, non-metabolism and metabolism activating condition. The protocol:
The mutagenicity of the compound of the present invention was assayed.
20 μL of freezing-stored rat typhoid bacillus (Salmonella typhimurium TA98 strain, TA100 strain) was inoculated on 10 mL of a liquid nutrient medium (2.5% Oxoid nutrient broth No. 2), and this was cultured before shaking at 37° C. for 10 hours. 9 mL of a bacterial solution of the TA98 strain was centrifuged (2000×g, 10 minutes) to remove a culturing solution. The bacteria was suspended in F buffer (K2HPO4: 3.5 g/L, KH2PO4: 1 g/L, (NH4)2SO4: 1 g/L, trisodium citrate dehydrate: 0.25 g/L, MgSO4.7H2O: 0.1 g/L), and the suspension was added to 110 mL of an Exposure medium (Micro F buffer containing Biotin: 8 μg/mL, histidine: 0.2 μg/mL, glucose: 8 mg/mL). The TA100 strain was added to 120 mL of the Exposure medium per 3.16 mL of the bacterial solution to prepare a test bacterial solution. […] of a test substance DMSO solution (several stage dilution from maximum dose 50 mg/mL at 2- to 3-fold ratio), DMSO as a negative control, 50 μg/mL of 4-nitroquinoline-1-oxide DMSO solution for the TA98 strain, 0.25 μg/mL of 2-(2-furyl)-3-(5-nitro-2-furyl)acrylamide DMSO solution for the TA100 strain each under the non-metabolism activating condition, 40 μg/mL of 2-aminoanthracene DMSO solution for the TA98 strain, 20 μg/mL of 2-aminoanthracene DMSO solution for the TA100 strain each under the metabolism activating condition all as a positive control, and 588 μL of the test bacterial solution (a mixed solution of 498 μL of the test bacterial solution and 90 μL of S9 mix under the metabolism activating condition) were mixed, and this was shaking-cultured at 37° C. for 90 minutes. […] Since a well containing a bacterium which has obtained the proliferation ability by mutation of an amino acid (histidine) synthesizing enzyme gene turns from purple to yellow due to a pH change, the bacterium proliferation well which has turned to yellow in 48 wells per dose is counted, and was assessed by comparing with a negative control group. […]

The nature of series [2]: Solubility test, 1% DMSO addition, artificial intestinal juice pH 6.8. The class given is physicochemical. The following applies: artificial intestinal juice with 1% DMSO, fassgf or other biorelevant, kinetic from dmso stock; pH 6.8, 1% DMSO addition, 16 hours at 25° C. Here is the method:
The solubility of each compound was determined under 1% DMSO addition conditions. A 10 mmol/L solution of the compound was prepared with DMSO, and 6 μL of the solution was added to 594 μL of an artificial intestinal juice (water and a 118 mL solution of 0.2 mol/L NaOH reagent are added to 250 mL of 0.2 mol/L potassium dihydrogen phosphate reagent to reach 1000 mL) with a pH of 6.8. The mixture is left standing for 16 hours at 25° C., and the mixture is vacuum-filtered. The filtrate is two-fold diluted with methanol/water=1/1 (v/v), and the compound concentration in the filtrate is measured with HPLC or LC/MS/MS by the absolute calibration method.

A short description of series [3]: Metabolism stability test, human liver microsomes. It is filed as in vitro ADME. The following applies: 30 minutes, 37° C., amount at 0 minute = 100%. Here is the method: Commercially available pooled human hepatic microsomes and a test compound were reacted for a constant time, then a remaining rate was calculated by comparing a reacted sample and an unreacted sample, thereby a degree of metabolism of the test compound in liver was assessed. A reaction was performed (oxidative reaction) at 37° C. for 0 minute or 30 minutes in the presence of 1 mmol/L NADPH in 0.2 mL of a buffer (50 mmol/L Tris-HCl, pH 7.4, 150 mmol/L potassium chloride, 10 mmol/L magnesium chloride) containing 0.5 mg protein/mL of human liver microsomes. After the reaction, 50 μl, of the reaction solution was added to 100 μL of a methanol/acetonitrile=1/1 (v/v), mixed and centrifuged at 3000 rpm for 15 minutes. The test compound in the supernatant was quantified by LC/MS/MS, and a remaining amount of the test compound after the reaction was calculated, letting a compound amount at 0 minute reaction time to be 100%. Hydrolysis reaction was performed in the absence of NADPH and glucuronidation reaction was in the presence of 5 mM UDP-glucuronic acid in place of NADPH, followed by similar operations.
For orientation: Liver microsomes are a subcellular fraction often used to study metabolism.

The next series has as its target T1, CYP2C19 (Homo sapiens, UniProt P33261).
T1 construct: enzyme, pooled human hepatic microsome 0.2 mg protein/mL; from tissue; host or cells: pooled human liver microsomes
The series is described as follows: CYP inhibition assay, mephenytoin 4'-hydroxylation. The class given is in vitro ADME. The following applies: pooled human liver microsomes, probe S-mephenytoin (4'-hydroxylation), 50 μmol/L, pooled human hepatic microsome. The protocol: Using commercially available pooled human hepatic microsome, and employing, as markers, 7-ethoxyresorufin O-deethylation (CYP1A2), tolbutamide methyl-hydroxylation (CYP2C9), mephenytoin 4′-hydroxylation (CYP2C19), dextromethorphan O-demethylation (CYP2D6), and terfenedine hydroxylation (CYP3A4) as typical substrate metabolism reactions of human main five CYP enzyme forms (CYP1A2, 2C9, 2C19, 2D6, 3A4), an inhibitory degree of each metabolite production amount by a test compound was assessed.
The reaction conditions were as follows: substrate, 0.5 μmol/L ethoxyresorufin (CYP1A2), 100 μmol/L tolbutamide (CYP2C9), 50 μmol/L S-mephenytoin (CYP2C19), 5 μmol/L dextromethorphan (CYP2D6), 1 μmol/L terfenedine (CYP3A4); reaction time, 15 minutes; reaction temperature, 37° C.; enzyme, pooled human hepatic microsome 0.2 mg protein/mL; test drug concentration, 1, 5, 10, 20 μmol/L (four points).
Each five kinds of substrates, human hepatic microsome, and a test drug in 50 mmol/L Hepes buffer as a reaction solution was added to a 96-well plate as the composition as described above, NADPH, as a cofactor was added to initiate metabolism reactions as markers and, after the incubation at 37° C. for 15 minutes, a methanol/acetonitrile=1/1 (v/v) solution was added to stop the reaction. After the centrifugation at 3000 rpm for 15 minutes, resorufin (CYP1A2 metabolite) in the supernatant was quantified by a fluorescent multilabel counter and tolbutamide hydroxide (CYP2C9 metabolite), mephenytoin 4′ hydroxide (CYP2C19 metabolite), dextrorphan (CYP2D6 metabolite), and terfenadine alcohol (CYP3A4 metabolite) were quantified by LC/MS/MS.
A reaction system containing only DMSO which is a solvent for dissolving a drug was adopted as a control (100%), and the remaining activity (%) was calculated, then IC50 was calculated by reverse presumption with a logistic model using a concentration and an inhibition rate.

The structures appear in SMILES notation.

T1 sequence (P33261 whole entry): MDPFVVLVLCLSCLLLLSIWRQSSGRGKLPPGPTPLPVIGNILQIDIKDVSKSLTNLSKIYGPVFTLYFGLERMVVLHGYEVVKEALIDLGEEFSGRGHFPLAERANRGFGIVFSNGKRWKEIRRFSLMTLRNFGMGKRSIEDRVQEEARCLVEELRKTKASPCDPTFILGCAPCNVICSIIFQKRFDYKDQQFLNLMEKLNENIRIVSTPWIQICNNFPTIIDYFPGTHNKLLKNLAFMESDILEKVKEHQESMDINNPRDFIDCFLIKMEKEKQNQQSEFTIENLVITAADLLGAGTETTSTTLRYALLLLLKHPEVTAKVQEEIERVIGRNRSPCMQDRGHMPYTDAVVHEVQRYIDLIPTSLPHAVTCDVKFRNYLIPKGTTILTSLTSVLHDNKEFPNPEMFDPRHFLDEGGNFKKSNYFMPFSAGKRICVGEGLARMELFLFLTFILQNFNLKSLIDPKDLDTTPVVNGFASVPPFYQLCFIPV

As to `CC(=O)Nc1c(C)c(C(OC(C)(C)C)C(=O)O)c(-c2ccc(C)c(C)c2)c(C)c1-c1ccc(C)c(C)c1` (stereo not shown) [Compound I-6], the mutagenicity entry in series [1] was “negative”. Besides, the solubility (usually the concentration that dissolves in the medium under given conditions) at 16 h in series [2] is not below 50 µM. Moreover, the “remaining amount of compound in liver microsomes of human” value in series [3] was 79%. For the same molecule, the concentration for half-maximal inhibition (IC50) (as a rule, the concentration that inhibits the measured activity by half) at 15 min against CYP2C19 was not below 20 µM.
